This is an account of results in ChEMBL document CHEMBL3045778, “Production of bacillomycin- and macrolactin-type antibiotics by Bacillus amyloliquefaciens NJN-6 for suppressing soilborne plant pathogens” (2012).

The subject of one experiment is Ralstonia solanacearum. Nature of the experiment: Antibacterial activity against Ralstonia solanacearum race 1 assessed as growth inhibition at 50 uL at 28 degC for 3 days. It counts as functional.
The test system of experiment [1] is Fusarium oxysporum f. sp. cubense. Nature of the experiment: Antifungal activity against soil-borne Fusarium oxysporum f. sp. cubense race 4 assessed as growth inhibition at 50 uL at 28 degC for 4 days. It counts as functional.

For `C[C@@H]1CCC/C=C/C=C/[C@H](O)C[C@@H](O)C/C=C\C=C\[C@@H](OC(=O)CC(=O)O)C/C=C/C=C\C(=O)O1` [7-O-MALONYL MACROLACTIN A], the “diameter of the inhibition zone (DIZ)” value with Ralstonia solanacearum worked out at 1 cm.

Take `C[C@@H]1CCC/C=C/C=C/[C@H](O)C[C@@H](O)C/C=C\C=C\[C@@H](OC(=O)CCC(=O)O)C/C=C/C=C\C(=O)O1` [7-O-SUCCINYL MACROLACTIN A]: the “diameter of the inhibition zone (DIZ)” value with Ralstonia solanacearum is given as 1.3 cm.

For the compound `CC(C)CCCCCCCCC1CC(=O)N[C@@H](CC(=O)O)C(=O)N[C@H](Cc2ccc(O)cc2)C(=O)N[C@H](CC(N)=O)C(=O)N2CCC[C@H]2C(=O)N[C@@H](CCC(=O)O)C(=O)N[C@H](CO)C(=O)N[C@@H]([C@@H](C)O)C(=O)N1` (stereo not given in full) [BACILLOMYCIN D(C14)], the “diameter of the inhibition zone (DIZ)” value in experiment [1] is recorded as 0.6 cm.

With `CCC(C)CCCCCCCCC1CC(=O)N[C@@H](CC(=O)O)C(=O)N[C@H](Cc2ccc(O)cc2)C(=O)N[C@H](CC(N)=O)C(=O)N2CCC[C@H]2C(=O)N[C@@H](CCC(=O)O)C(=O)N[C@H](CO)C(=O)N[C@@H]([C@@H](C)O)C(=O)N1` (stereo not given in full) [BACILLOMYCIN D(C15)], the “diameter of the inhibition zone (DIZ)” value in experiment [1] came to 0.7 cm.

Regarding `C[C@@H]1CCC/C=C/C=C/[C@H](O)C[C@@H](O)C/C=C\C=C\[C@@H](O)C/C=C/C=C\C(=O)O1` [MACROLACTIN A], the “diameter of the inhibition zone (DIZ)” value in the experiment on Ralstonia solanacearum came out at 1.2 cm.
